Source: patent US20240374551A1, “ENTERO-ANTISEPTIC FOR THE TREATMENT OF GASTROINTESTINAL INFECTIONS IN HUMANS” (priority 2023, published 2024)

Tests used:
[1] = system: Staphylococcus aureus; test: Zone diameter on Müler-Hinton-Agar; type: cell-based
[2] = system: Escherichia coli 0157H5; test: Zone diameter on Müler-Hinton-Agar; type: cell-based
[3] = system: Salmonella typhimurium DT104; test: Zone diameter on Müler-Hinton-Agar; type: cell-based
[4] = system: Streptococcus pneumonia; test: Zone diameter on Müler-Hinton-Agar; type: cell-based
[5] = system: Streptococcus pyogenes; test: Zone diameter on Müler-Hinton-Agar; type: cell-based
[6] = system: Streptococcus uberis; test: Zone diameter on Müler-Hinton-Agar; type: cell-based
[7] = system: Listeria monocytogenes; test: Zone diameter on Müler-Hinton-Agar; type: cell-based
[8] = system: Salmonella; test: Zone diameter on Müler-Hinton-Agar; type: cell-based
[9] = system: Campylobacter; test: Zone diameter on Müler-Hinton-Agar; type: cell-based
[10] = system: Shigella; test: Zone diameter on Müler-Hinton-Agar; type: cell-based
[11] = system: Vibrio; test: Zone diameter on Müler-Hinton-Agar; type: cell-based
[12] = system: Yersinia; type: cell-based; conditions: Müler-Hinton-Agar
[13] = system: Listeria; test: Zone diameter on Müler-Hinton-Agar; type: cell-based
[14] = Clinical pilot study on side effects, 60 humans; type: in vivo; conditions: 250 mg/30 kg body weight every 12 h for 7 days
Procedure: The reason for this testing was to check if the compound tablets, after a longer period of use, can cause any eventual side effects.
The test results were generated and monitored to obtain the relevant information and facts. In this study, the general monitored parameters were: pulse, breathing, ECG (Electrocardiography), discomfort, adverse events, and/or allergy monitoring. These parameters were measured before the treatment with the compound and 15 min after its intake. The compound was ingested on the therapeutic days in each patient at 8.00 AM and 8.00 PM CET (paragraph [0034] and paragraph [0035]). After The compound had been consumed, the physician made observations for 30 min. The patients' feelings during and after the compound intake were also recorded for each participant.
As part of the biochemical analysis of patients' blood, each patient's blood sample was checked for biochemical parameters. Blood samples were taken from each patient before the beginning of the test, on the 4th day from the tests beginning, and on the 8th day from the tests beginning. […] The biochemical parameters that were measured in blood samples include: • 1. Liver status • 2. C Reactive protein • 3. Kidney status
The dose was: 250 mg of the compound/30 kg of the body weight every 12 h for seven (7) days (paragraph [0034] and paragraph [0035]). […]

[15] = system: bacteria; test: In vitro studies of bactericide effect versus Thymol and Carvacrol; type: cell-based
[16] = system: white lab mice; test: Acute toxicity, oral LD50 p.o., mice
[17] = system: white lab rats; test: Acute toxicity, oral LD50 p.o., rats
[18] = system: mammalian cells; test: Pilot test of effect on mitotic cell division; conditions: compound in tablet form
[19] = system: white lab mice; test: Acute toxicity, parenteral intraperitoneal LD50 i.p., mice; conditions: mouse, in vivo
[20] = system: white lab rats; test: Acute toxicity, parenteral intraperitoneal LD50 i.p., rats

Compound | R (evaluation by zone diameter) [1] | R (evaluation by zone diameter) [2] | R (evaluation by zone diameter) [3] | R (evaluation by zone diameter) [4] | R (evaluation by zone diameter) [5] | R (evaluation by zone diameter) [6] | R (evaluation by zone diameter) [7] | R (evaluation by zone diameter) [8] | R (evaluation by zone diameter) [9] | R (evaluation by zone diameter) [10] | R (evaluation by zone diameter) [11] | R (evaluation by zone diameter) [12] | R (evaluation by zone diameter) [13] | further results
2-(2-isopropyl-5-methylphenoxy)-2-oxoethan-1-aminium 2-isopropyl-5methylphenolate [The novel compound] | ES (21 mm and more: extremely sensitive: ES) | ES (21 mm and more: extremely sensitive: ES) | ES (21 mm and more: extremely sensitive: ES) | ES (21 mm and more: extremely sensitive: ES) | ES (21 mm and more: extremely sensitive: ES) | ES (21 mm and more: extremely sensitive: ES) | ES (21 mm and more: extremely sensitive: ES) | ES (21 mm and more: extremely sensitive: ES) | ES (21 mm and more: extremely sensitive: ES) | ES (21 mm and more: extremely sensitive: ES) | ES (21 mm and more: extremely sensitive: ES) | ES (21 mm and more: extremely sensitive: ES) | ES (21 mm and more: extremely sensitive: ES) | allergy symptoms [14]: no allergy symptoms; tolerance [14]: showed tolerance; bactericide effect compared with Thymol and Carvacrol [15]: more effective and faster bactericide effect than existing Thymol and Carvacrol; time after which discomfort symptoms disappeared ([16]; mice, p.o., 2,000 mg/kg): 1 to 3 min; mice that changed their behavior and demonstrated light discomfort ([16]; out of 100 mice, oral dose 2,000 mg/kg): 21; rats that changed their behavior and demonstrated light discomfort ([17]; out of 100 rats, oral dose 2,500 mg/kg): 37; time after which discomfort symptoms disappeared ([17]; rats, p.o., 2,500 mg/kg): 1 to 3 min; effect on mitotic cell division [18]: no negative effects were diagnosed; mice that changed their behavior and demonstrated discomfort [19]: 27; time after which discomfort symptoms disappeared [19]: 3 to 5 min; rats that changed their behavior and demonstrated discomfort ([20]; out of 100 rats, i.p. dose 2,500 mg/kg): 35; time after which discomfort symptoms disappeared ([20]; rats, i.p., 2,500 mg/kg): 5 to 6 min
CC1(C)S[C@@H]2[C@H](NC(=O)[C@H](N)c3ccccc3)C(=O)N2[C@H]1C(=O)O [Ampicillin] | R (0 mm-4 mm: resistant: R) | MS (5 mm-9 mm: moderately sensitive: MS) | MS (5 mm-9 mm: moderately sensitive: MS) | R (0 mm-4 mm: resistant: R) | R (0 mm-4 mm: resistant: R) | R (0 mm-4 mm: resistant: R) | MS (5 mm-9 mm: moderately sensitive: MS) | MS (5 mm-9 mm: moderately sensitive: MS) | R (0 mm-4 mm: resistant: R) | MS (5 mm-9 mm: moderately sensitive: MS) | R (0 mm-4 mm: resistant: R) | R (0 mm-4 mm: resistant: R) | R (0 mm-4 mm: resistant: R) | 
